Consider 6 compounds from ChEMBL document CHEMBL5291721, “A preclinical secondary pharmacology resource illuminates target-adverse drug reaction associations of marketed drugs” (Nat Commun, 2023).

Among the targets are Adenosine receptor A2a (Homo sapiens, UniProt P29274); Histamine H3 receptor (Homo sapiens, UniProt Q9Y5N1); Motilin receptor (Homo sapiens, UniProt O43193).
Experiment [1] has as its target Beta-2 adrenergic receptor (Homo sapiens, UniProt P07550).
The target of experiment [2] is Sodium-dependent noradrenaline transporter (Homo sapiens, UniProt P23975).
Sequence of Sodium-dependent noradrenaline transporter (P23975 whole entry): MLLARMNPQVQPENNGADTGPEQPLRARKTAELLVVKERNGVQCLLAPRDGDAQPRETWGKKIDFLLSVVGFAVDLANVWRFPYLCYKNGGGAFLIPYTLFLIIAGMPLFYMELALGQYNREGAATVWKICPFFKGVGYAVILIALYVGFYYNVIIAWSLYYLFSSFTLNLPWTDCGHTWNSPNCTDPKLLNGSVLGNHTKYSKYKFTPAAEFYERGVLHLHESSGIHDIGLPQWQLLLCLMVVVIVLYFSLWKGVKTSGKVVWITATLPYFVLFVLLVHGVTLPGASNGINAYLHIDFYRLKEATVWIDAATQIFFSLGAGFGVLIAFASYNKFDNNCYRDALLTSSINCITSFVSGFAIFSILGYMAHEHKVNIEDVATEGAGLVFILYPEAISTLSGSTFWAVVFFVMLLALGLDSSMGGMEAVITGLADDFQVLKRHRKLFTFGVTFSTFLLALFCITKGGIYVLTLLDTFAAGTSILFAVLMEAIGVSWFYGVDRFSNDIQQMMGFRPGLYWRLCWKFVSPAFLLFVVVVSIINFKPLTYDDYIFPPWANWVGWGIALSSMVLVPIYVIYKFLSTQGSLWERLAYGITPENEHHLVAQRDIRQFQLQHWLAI
Experiment [3] deals with T1, Muscarinic acetylcholine receptor M1 (Homo sapiens, UniProt P11229).
T1 sequence (P11229 whole entry): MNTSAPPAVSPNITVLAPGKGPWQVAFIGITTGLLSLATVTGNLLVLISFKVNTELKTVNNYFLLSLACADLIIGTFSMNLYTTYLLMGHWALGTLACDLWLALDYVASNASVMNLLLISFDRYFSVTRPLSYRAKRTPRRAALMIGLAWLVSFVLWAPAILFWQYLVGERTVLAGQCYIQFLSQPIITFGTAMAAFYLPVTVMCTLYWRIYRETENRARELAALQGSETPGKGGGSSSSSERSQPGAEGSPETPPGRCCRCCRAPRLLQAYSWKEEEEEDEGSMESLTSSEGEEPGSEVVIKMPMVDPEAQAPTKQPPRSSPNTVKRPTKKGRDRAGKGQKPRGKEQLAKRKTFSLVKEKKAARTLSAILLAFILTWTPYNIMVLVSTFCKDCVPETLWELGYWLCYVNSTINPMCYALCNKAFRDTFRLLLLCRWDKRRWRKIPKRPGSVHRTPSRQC
The class given is functional.

The target of experiment [4] is Beta-1 adrenergic receptor (Homo sapiens, UniProt P08588). It counts as functional.
Experiment [5] addresses T2, Alpha-2A adrenergic receptor (Homo sapiens, UniProt P08913).
T2 sequence (P08913 whole entry): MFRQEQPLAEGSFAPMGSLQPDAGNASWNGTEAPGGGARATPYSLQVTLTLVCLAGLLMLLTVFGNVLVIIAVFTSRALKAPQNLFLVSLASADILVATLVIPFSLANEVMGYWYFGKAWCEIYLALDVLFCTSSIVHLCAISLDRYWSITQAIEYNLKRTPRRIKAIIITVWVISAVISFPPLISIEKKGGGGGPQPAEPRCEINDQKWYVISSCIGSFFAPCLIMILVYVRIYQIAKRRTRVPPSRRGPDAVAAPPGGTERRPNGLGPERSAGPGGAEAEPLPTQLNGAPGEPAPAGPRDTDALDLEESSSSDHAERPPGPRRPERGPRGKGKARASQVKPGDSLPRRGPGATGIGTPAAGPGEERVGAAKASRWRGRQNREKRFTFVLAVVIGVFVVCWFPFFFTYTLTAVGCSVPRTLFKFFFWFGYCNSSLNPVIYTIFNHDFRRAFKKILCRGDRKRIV
It counts as functional, cell-based.

The target in another experiment is Cannabinoid receptor 1 (Homo sapiens, UniProt P21554). The class given is functional, cell-based.
Sequence of Cannabinoid receptor 1 (P21554 whole entry): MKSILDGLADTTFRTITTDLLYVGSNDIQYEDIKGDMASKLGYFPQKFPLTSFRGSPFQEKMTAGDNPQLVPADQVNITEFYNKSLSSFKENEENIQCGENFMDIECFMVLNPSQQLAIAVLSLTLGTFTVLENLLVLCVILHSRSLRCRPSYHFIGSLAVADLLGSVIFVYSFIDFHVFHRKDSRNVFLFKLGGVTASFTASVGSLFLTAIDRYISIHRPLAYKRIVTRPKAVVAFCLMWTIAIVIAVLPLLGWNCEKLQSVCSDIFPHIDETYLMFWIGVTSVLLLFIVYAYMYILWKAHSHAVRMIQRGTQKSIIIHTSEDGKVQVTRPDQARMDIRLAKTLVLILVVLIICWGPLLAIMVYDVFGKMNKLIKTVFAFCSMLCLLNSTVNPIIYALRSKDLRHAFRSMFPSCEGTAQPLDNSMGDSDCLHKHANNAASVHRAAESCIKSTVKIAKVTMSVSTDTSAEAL
A further experiment addresses Histamine H2 receptor (Homo sapiens, UniProt P25021). It counts as functional, cell-based.
Experiment [6] concerns the target T3, 5-hydroxytryptamine receptor 2C (Homo sapiens, UniProt P28335).
T3 sequence (P28335 whole entry): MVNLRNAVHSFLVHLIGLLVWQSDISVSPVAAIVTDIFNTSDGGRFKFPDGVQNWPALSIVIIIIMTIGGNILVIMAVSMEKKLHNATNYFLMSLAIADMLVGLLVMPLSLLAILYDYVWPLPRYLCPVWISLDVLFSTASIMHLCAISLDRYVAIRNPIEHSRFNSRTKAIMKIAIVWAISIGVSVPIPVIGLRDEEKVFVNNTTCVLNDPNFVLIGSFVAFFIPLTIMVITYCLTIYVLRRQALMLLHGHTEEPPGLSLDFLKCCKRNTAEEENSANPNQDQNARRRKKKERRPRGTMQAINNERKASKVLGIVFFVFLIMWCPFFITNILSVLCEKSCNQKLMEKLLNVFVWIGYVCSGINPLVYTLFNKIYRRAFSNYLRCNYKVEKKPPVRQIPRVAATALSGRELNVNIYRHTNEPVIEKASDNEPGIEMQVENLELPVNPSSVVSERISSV

The target of experiment [7] is T4, Gamma-aminobutyric acid receptor subunit alpha-1 (Rattus norvegicus, UniProt P62813).
Experiment [8] deals with 5-hydroxytryptamine receptor 2B (Homo sapiens, UniProt P41595). The class given is functional, cell-based.
Sequence of 5-hydroxytryptamine receptor 2B (P41595 whole entry): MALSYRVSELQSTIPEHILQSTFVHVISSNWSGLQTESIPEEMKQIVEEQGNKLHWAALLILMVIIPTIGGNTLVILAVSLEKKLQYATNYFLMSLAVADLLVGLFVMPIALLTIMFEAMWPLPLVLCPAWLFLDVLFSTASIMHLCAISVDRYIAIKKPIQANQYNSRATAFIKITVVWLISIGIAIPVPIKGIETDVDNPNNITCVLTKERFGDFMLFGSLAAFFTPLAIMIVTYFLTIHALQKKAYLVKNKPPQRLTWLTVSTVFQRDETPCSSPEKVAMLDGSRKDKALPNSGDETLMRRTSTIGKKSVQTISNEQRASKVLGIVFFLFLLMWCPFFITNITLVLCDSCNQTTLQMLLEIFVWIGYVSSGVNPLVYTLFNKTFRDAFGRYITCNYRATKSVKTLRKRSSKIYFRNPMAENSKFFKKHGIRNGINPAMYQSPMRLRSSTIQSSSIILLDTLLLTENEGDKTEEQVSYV
The target of experiment [9] is Glutamate receptor ionotropic, NMDA 1 (Rattus norvegicus, UniProt P35439).
Experiment [10] deals with 5-hydroxytryptamine receptor 2A (Homo sapiens, UniProt P28223). The class given is functional, cell-based.
Sequence of 5-hydroxytryptamine receptor 2A (P28223 whole entry): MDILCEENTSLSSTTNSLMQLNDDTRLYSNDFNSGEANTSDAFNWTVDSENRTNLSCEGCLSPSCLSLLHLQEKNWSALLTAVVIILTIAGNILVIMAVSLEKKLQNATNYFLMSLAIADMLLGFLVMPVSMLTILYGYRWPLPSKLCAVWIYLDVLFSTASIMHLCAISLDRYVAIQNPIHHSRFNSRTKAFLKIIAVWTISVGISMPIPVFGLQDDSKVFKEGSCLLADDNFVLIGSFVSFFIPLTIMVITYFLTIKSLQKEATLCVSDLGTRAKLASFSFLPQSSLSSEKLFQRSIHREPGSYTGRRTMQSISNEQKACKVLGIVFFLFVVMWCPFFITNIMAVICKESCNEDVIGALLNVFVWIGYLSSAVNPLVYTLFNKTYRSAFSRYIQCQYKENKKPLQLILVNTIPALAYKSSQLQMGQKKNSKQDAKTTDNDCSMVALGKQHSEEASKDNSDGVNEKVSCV
Experiment [11] addresses cGMP-inhibited 3',5'-cyclic phosphodiesterase 3A (Homo sapiens, UniProt Q14432). The class given is functional.
Experiment [12] addresses T4, Gamma-aminobutyric acid receptor subunit alpha-1. The class given is functional.
Experiment [13] addresses Sodium-dependent serotonin transporter (Homo sapiens, UniProt P31645).
In experiment [14] the target is T5, Neuropeptide Y receptor type 1 (Homo sapiens, UniProt P25929).
T5 sequence (P25929 whole entry): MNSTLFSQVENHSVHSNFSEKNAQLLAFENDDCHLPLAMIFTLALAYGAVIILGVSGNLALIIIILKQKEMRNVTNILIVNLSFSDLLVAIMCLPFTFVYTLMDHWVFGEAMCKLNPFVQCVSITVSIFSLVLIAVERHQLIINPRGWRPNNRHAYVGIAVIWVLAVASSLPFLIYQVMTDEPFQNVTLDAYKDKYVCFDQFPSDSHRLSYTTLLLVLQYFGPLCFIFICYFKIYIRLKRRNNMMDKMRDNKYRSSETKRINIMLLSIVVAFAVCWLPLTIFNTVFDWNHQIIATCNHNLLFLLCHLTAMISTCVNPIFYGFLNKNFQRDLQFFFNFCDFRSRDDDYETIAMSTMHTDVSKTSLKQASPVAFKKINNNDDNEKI

Experiment [15] addresses Growth hormone secretagogue receptor type 1 (Homo sapiens, UniProt Q92847).
Experiment [16] concerns the target Sodium-dependent dopamine transporter (Homo sapiens, UniProt Q01959).

Molecules are shown by their SMILES.

One may read the AC50 as the concentration at which the activity in the assay is half-maximal. A lower AC50 goes with activity at low concentration.
Further: assay procedure not described here.

Sequence of Sodium-dependent serotonin transporter (P31645 whole entry): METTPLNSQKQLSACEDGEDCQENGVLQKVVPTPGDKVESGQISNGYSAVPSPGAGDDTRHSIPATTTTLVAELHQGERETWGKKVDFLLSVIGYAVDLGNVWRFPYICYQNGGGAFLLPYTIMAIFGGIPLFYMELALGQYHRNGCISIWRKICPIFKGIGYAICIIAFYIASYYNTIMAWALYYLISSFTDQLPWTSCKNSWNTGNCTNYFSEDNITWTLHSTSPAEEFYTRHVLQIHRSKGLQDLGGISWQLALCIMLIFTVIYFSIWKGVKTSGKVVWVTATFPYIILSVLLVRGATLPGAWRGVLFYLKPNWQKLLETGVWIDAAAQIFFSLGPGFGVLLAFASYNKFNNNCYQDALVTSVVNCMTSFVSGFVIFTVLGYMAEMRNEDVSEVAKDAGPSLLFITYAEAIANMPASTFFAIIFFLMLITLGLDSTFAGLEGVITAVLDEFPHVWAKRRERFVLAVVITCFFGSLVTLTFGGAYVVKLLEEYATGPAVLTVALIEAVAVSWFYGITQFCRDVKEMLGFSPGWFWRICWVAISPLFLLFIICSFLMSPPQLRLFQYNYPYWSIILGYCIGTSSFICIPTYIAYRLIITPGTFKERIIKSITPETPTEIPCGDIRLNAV
Sequence of Growth hormone secretagogue receptor type 1 (Q92847 whole entry): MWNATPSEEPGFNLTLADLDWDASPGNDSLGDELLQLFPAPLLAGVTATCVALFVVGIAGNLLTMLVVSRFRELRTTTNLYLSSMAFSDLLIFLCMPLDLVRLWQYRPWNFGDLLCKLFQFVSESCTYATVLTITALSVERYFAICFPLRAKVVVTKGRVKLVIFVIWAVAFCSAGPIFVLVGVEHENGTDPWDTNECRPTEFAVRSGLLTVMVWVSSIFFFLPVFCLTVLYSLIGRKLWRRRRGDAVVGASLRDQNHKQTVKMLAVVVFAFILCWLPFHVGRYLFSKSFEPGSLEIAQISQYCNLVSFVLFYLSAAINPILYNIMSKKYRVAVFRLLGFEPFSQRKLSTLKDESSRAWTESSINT
Sequence of Histamine H2 receptor (P25021 whole entry): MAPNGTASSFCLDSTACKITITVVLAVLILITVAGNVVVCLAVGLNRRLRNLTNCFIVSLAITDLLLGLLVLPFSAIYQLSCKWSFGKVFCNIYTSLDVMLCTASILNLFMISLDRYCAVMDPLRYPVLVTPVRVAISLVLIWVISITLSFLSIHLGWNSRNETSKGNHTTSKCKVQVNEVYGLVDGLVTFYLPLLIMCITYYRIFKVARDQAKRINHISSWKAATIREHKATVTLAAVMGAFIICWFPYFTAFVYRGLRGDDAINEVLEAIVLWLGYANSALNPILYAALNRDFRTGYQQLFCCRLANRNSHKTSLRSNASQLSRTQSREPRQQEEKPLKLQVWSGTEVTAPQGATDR
Sequence of Motilin receptor (O43193 whole entry): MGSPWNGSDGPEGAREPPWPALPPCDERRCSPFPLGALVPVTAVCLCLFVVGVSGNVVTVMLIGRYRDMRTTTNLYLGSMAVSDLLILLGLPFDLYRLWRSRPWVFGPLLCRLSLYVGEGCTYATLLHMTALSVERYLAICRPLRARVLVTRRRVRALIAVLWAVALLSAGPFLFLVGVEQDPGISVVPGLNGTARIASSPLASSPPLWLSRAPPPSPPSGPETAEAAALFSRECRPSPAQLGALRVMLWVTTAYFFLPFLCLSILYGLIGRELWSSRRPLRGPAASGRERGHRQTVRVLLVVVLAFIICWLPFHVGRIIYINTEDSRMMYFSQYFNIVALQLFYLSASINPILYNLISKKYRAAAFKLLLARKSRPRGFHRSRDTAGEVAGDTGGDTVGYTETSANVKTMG
Sequence of Beta-2 adrenergic receptor (P07550 whole entry): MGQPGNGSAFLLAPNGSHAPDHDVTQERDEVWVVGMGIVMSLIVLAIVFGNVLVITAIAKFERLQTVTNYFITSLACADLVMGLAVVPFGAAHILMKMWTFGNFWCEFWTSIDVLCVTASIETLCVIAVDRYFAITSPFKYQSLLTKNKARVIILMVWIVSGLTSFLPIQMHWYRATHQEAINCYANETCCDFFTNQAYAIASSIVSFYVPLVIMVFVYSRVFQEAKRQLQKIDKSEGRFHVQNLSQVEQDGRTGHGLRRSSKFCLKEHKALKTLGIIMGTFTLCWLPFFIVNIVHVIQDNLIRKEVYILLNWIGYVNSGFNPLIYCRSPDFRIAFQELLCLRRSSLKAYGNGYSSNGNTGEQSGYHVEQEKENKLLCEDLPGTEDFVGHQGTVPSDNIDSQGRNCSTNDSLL
Sequence of Sodium-dependent dopamine transporter (Q01959 whole entry): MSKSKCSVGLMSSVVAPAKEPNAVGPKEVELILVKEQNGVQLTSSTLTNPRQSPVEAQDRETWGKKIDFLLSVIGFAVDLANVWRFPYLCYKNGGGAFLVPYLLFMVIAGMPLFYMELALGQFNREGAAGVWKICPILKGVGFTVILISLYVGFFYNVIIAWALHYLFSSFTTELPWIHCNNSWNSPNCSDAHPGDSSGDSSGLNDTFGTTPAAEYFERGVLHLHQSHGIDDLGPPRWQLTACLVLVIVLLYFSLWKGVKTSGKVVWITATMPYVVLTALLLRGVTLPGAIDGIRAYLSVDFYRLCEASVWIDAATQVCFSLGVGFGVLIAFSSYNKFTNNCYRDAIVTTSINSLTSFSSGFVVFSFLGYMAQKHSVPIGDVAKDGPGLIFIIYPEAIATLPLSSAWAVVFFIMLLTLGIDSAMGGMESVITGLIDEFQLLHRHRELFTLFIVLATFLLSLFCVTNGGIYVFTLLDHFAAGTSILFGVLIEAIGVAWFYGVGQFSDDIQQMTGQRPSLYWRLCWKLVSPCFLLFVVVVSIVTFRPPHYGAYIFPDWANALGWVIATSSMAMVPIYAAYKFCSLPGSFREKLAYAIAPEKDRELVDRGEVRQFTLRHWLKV

`COc1ccc(C(=O)NCc2ccc(OCCN(C)C)cc2)cc1OC` [ITOPRIDE]: the concentration at half-maximal activity (AC50) (in experiment [1]; in experiment [2]; in experiment [3]; in experiment [4]; in experiment [5]; on Adenosine receptor A2a) was greater than 30 µM throughout. Also, the AC50 (on Cannabinoid receptor 1; at Histamine H2 receptor; in experiment [6]; in [7]; in [8]; in experiment [9]) was greater than 30 µM throughout. Moreover, the AC50 in experiment [10], in experiment [11], in experiment [12], in experiment [13], in experiment [14] and in experiment [15] was greater than 30 µM each time. For the same compound, the concentration at half-maximal activity (AC50) at Histamine H3 receptor is 19 µM; on Motilin receptor, greater than 30 µM; in [16], greater than 30 µM.
On to `CN1CC(=O)N2[C@H](c3ccc4c(c3)OCO4)c3[nH]c4ccccc4c3C[C@@H]2C1=O`, for which the AC50 is greater than 10 µM in experiment [1]; greater than 30 µM in [2]; greater than 10 µM in experiment [3]; greater than 10 µM in experiment [4]; greater than 10 µM in experiment [5]; greater than 30 µM at Adenosine receptor A2a. Also, the AC50 on Cannabinoid receptor 1 was greater than 30 µM; at Histamine H2 receptor, greater than 10 µM; in experiment [6], greater than 30 µM; in experiment [7] it was greater than 10 µM; in experiment [8], greater than 10 µM; in experiment [9], greater than 10 µM. Also, the half-maximal activity concentration (AC50) in [10] was greater than 30 µM; in [11], greater than 30 µM; in experiment [12] it was greater than 10 µM; in [13], 34.8 µM; in experiment [14] it was greater than 30 µM; in experiment [15], greater than 30 µM. The AC50 is greater than 10 µM on Histamine H3 receptor, greater than 10 µM at Motilin receptor and greater than 30 µM in [16].
In the case of `Nc1ncnc2c1ncn2[C@@H]1O[C@H](COP(=O)(O)O)[C@@H](O)[C@H]1O` [ADENOSINE PHOSPHATE], the AC50 (in [1]; in experiment [2]; in experiment [3]; in experiment [4]; in experiment [5]; on Adenosine receptor A2a) was greater than 30 µM throughout. For the same compound, the AC50 (at Cannabinoid receptor 1; on Histamine H2 receptor; in experiment [6]; in experiment [7]; in [8]; in experiment [9]) was greater than 30 µM in each case. In addition, the AC50 in experiment [10] was greater than 30 µM; in experiment [11], 16 µM; in experiment [12], greater than 30 µM; in experiment [13], greater than 30 µM; in experiment [14] it was greater than 30 µM; in [15], greater than 30 µM. Moreover, the AC50 (on Histamine H3 receptor; on Motilin receptor; in [16]) was greater than 30 µM each time.
With `O=C(O)Cc1cn(-c2ccccc2)nc1-c1ccc(Cl)cc1` [LONAZOLAC], the AC50 (in experiment [1]; in [2]; in experiment [3]; in [4]; in experiment [5]; on Adenosine receptor A2a) was greater than 30 µM throughout. In addition, the AC50 (at Cannabinoid receptor 1; at Histamine H2 receptor; in experiment [6]; in [7]; in experiment [8]; in [9]) was greater than 30 µM in each case. The AC50 in experiment [10], in experiment [11], in [12], in [13], in [14] and in experiment [15] was greater than 30 µM in each case. Besides, the AC50 (on Histamine H3 receptor; at Motilin receptor; in [16]) was greater than 30 µM in each case.
With `CN1CCN(C(=O)OC2c3nccnc3C(=O)N2c2ccc(Cl)cn2)CC1` (stereo unspecified) [ZOPICLONE], the concentration at half-maximal activity (AC50) in experiment [1] was greater than 10 µM; in [2] it was greater than 30 µM; in experiment [3], greater than 30 µM; in experiment [4], greater than 30 µM; in experiment [5], greater than 10 µM; on Adenosine receptor A2a, greater than 30 µM. For the same compound, the AC50 was greater than 30 µM on Cannabinoid receptor 1; greater than 10 µM on Histamine H2 receptor; greater than 10 µM in [6]; greater than 10 µM in [7]; greater than 10 µM in experiment [8]; greater than 10 µM in [9]. Also, the AC50 in experiment [10] was greater than 30 µM; in [11], greater than 30 µM; in experiment [12], 0.093 µM; in [13], greater than 30 µM; in experiment [14], greater than 30 µM; in [15] it was greater than 30 µM. Further, the AC50 (on Histamine H3 receptor; at Motilin receptor; in experiment [16]) was greater than 30 µM each time.
Regarding `O=C(OCCN1CCOCC1)c1cccnc1Nc1cccc(C(F)(F)F)c1` [MORNIFLUMATE], the AC50 in [1] was greater than 30 µM; in [2], 17 µM; in experiment [3], greater than 30 µM; in experiment [4] it was greater than 30 µM; in [5], greater than 30 µM; on Adenosine receptor A2a, greater than 30 µM. In addition, the AC50 was greater than 30 µM at Cannabinoid receptor 1; greater than 30 µM at Histamine H2 receptor; greater than 30 µM in experiment [6]; greater than 30 µM in experiment [7]; 10 µM in experiment [8]; greater than 30 µM in experiment [9]. The AC50 in [10] was 2.9 µM; in [11] it was greater than 30 µM; in [12] it was greater than 30 µM; in experiment [13], greater than 30 µM; in experiment [14] it was greater than 30 µM; in experiment [15], greater than 30 µM. Also, the AC50 was greater than 30 µM on Histamine H3 receptor, greater than 30 µM on Motilin receptor and 12 µM in [16].
